Data as given in US20110104290A1, “COMPOSITIONS FOR REDUCING BLOOD GLUCOSE LEVEL AND USES THEREOF” (priority 2008, published 2011).

System: STZ-induced hyperglycemic rats
Experiment: Anti-hyperglycemic effect in STZ-induced hyperglycemic rats (serum blood glucose level)
Format: in vivo, Sprague-Dawley (SD) rats
Procedure: For the purpose of the present invention, the dietary supplement prepared in accordance with Example 1 is named Composition 1. Composition 1 is an herbal supplement used for control of blood glucose level. The purpose of this study was to assess the anti-hyperglycemic effect of Composition 1 tablet in STZ-induced hyperglycemic rats.
Sprague-Dawley (SD) rats weighing 230˜270 g were used to establish the hyperglycemic rat model. Animals were fasted for 18 hours before receiving a single intraperitoneal injection of 2% STZ at a dose of 40 mg/kg BW (2.0 ml/kg). Six SD rats were selected as the Blank Control Group and injected intraperitoneally with citric acid buffer at a dose of 2.0 ml/kg BW. All rats had free access to food and water after the injection. Blood samples were collected from rats' posterior orbits veins at 72 hours after the injection for determination of the blood glucose level. Successful establishment of hyperglycemic rat model was defined as a non-fasting venous blood glucose level≧13.8 mmol/L. […]
The clinical dose of Metformin for human is 1˜1.5 g/day, which is about 0.025 g/kg body weight/day for an adult. The administration dose of Metformin for rat was calculated to be 0.25 g/kg body weight/day, 10 times of human clinical dose. […]

SMILES: CN(C)C(=N)N=C(N)N [Metformin]
- blood glucose levels compared to the Model Control Group (Metformin Control Group 0.25 g/kg/day, 3rd and 4th weeks after the beginning of administration, p<0.05): lower
- decrease of end-point blood glucose level compared to level prior to the treatment (Metformin Control Group, 0.25 g/kg/day i.g., after the 4-week treatment): 59%
